Data on two compounds can be found in patent US20240173314A1, “TREATMENT OF SICKLE CELL ANAEMIA” (ZYDUS LIFESCIENCES LIMITED, priority 2021, published 2024).

The test system of experiment [1] is ischemia condition. The note with it: cited from earlier work.
Experiment [2] deals with animal model of anaemia. The note with it: animal model of anaemia (Jain et al., 2019; Joharapurkar et al., 2018); cited from earlier work.
The subject of experiment [3] is PHZ-induced haemolytic anaemia. Kind of experiment: Phenylhydrazine (PHZ)-induced haemolytic anaemia in mice. It is filed as in vivo, mice (male C57BL/6J). The note with it: 15 mg/kg, PO, daily day -1 to day 5; PHZ-treated mice. On the procedure: Male C57BL/6J (6-8 weeks old) were used in the study. Mice were treated with phenylhydrazine (PHZ) on day 0, day 1 and day 3. The PHZ was given by intraperitoneally route at 40 mg/kg on day 0, and 20 mg/kg on day 1 and 3. Vehicle control or compound of formula (Ia) (15 mg/kg, PO) was given daily from day −1 to day 5. At the end of treatment period, whole blood samples were processed for haemoglobin, RBC and haematocrit measurement. The serum samples were analyzed for total iron content. The effect on oxidative and inflammatory markers will be analyzed.

Experiment [4] relates to isolated RBCs. The experiment can be described thus: PHZ-induced reactive oxygen species (DCFDA/DCF) in isolated RBCs. The class given is cell-based, C57BL/6J. The note with it: PHZ 10 μM, RBC suspension. On the procedure:
(§1) The RBC was isolated from healthy male C57BL/6J (6-8 weeks old) into a heparinized tube. The RBC pellet was isolated by centrifugation. The RBC pellet was washed three time with glucose supplemented phosphate buffered saline (PBS). The final RBC pellet was diluted 1:4 with glucose supplemented PBS. The RBC suspension was incubated with compound of formula (Ia) at 0.05, 0.5 and 5 μM concentration for 30 min at 37° C. Then the phenylhydrazine (10 μM) was added to all groups and incubated for further 30 min at 37° C. After that 2,7-Dichlorofluorescin-diacetate (DCFDA, 400 μM) was added to the RBC suspension and incubated for 30 min at 37° C. After incubation, the RBC suspension was washed two times with glucose-PBS, and RBC were lysed with 200 μL of ice-cold 0.1% Triton X100 and then incubated for 30 min in darkness at room temperature. After 30 min incubation, the fluorescence of all samples was read (excitation wavelength: 485 nm and emission wavelength: 538 nm). The concentration of 2,7-Dichlorofluorescin (DCF) was calculated from the DCF standard curve. For thiobarbituric acid reactive substances (TBARS) measurement, RBC lysate was used and malondialdehyde was measured using thiobarbituric acid method (Patel V et al., 2018).

Experiment [5] concerns isolated RBCs. The experiment can be described thus: TBARS (malondialdehyde, thiobarbituric acid method) in RBC lysate after PHZ. The class given is cell-based, C57BL/6J. The note with it: PHZ 10 μM. On the procedure:
as §1

Experiment [6] concerns erythroid progenitor cells in bone marrow of anemic rats. The experiment can be described thus: Erythroid progenitor cells in bone marrow of cisplatin/turpentine oil anemic rats. The class given is in vivo. The conditions noted are these: 15 mg/kg, PO, alternate day, two weeks. The method, then:
The anaemia was induced by cisplatin (5 mg/kg, IP, single dose) and turpentine oil (5 mL/kg, SC, twice a week) administration for four weeks. The compound of formula (Ia) (15 mg/kg, PO, alternate day) treatment was initiated after two weeks of cisplatin/turpentine oil administration. After two weeks of compound of formula (Ia) treatment, animals were euthanized and bone marrow was isolated. Bone marrow smear was prepared and stain with May-Grunwald stain and Giemsa stain. The ratio of erythroid progenitor cell: total cells were expressed as percentage.

[7] abbreviates: ischemia condition (Joharapurkar et al., 2021).
Setting [8] is: oxidative stress (Joharapurkar et al., 2021).

`O=C(O)CNC(=O)c1c(O)c2ccccc2n(OCC2CC2)c1=O` [Desidustat]: in experiment [1] (setting [7]), the IL-1β levels result is recorded as “reduced” and the IL-6 levels result is listed as “reduced”. Moreover, in experiment [1] (setting [8]), the “malondialdehyde (MDA)” value is reported as “decreases” and the “superoxide dismutase (SOD)” value was “decreases”. Besides, in experiment [2], the HIF stabilization result was “stabilizes HIF” and the erythropoiesis entry is listed as “induces erythropoiesis”.

In the case of `O=C(O)CNC(=O)c1c(O)c2ccccc2n(OCC2CC2)c1=O` [compound of formula (Ia)], in experiment [3], the “decrease in serum iron levels” value was 26.0±7.6%. The “increase in HCT level compared with PHZ control” value in experiment [3] was found to be 37.7±5.7%. Moreover, the “increase in RBC level compared with PHZ control” value in experiment [3] was determined as 44.2±10.4%. Further, the “increase in hemoglobin level compared with PHZ control” value in experiment [3] is 36.4±6.2%. Further, the “decrease of ROS (DCF concentration) compared with vehicle control” value is 9.6±8.9% in experiment [4] (0.05 μM), 25.5±3.8% in experiment [4] (0.5 μM) and 35.1±1.7% in experiment [4] (5 μM). For the same compound, the “decrease of TBARS levels compared with vehicle control” value came to 5.5±4.0% in experiment [5] (0.05 μM), 21.8±4.0% in experiment [5] (0.5 μM) and 27.3±4.0% in experiment [5] (5 μM). The “increase in % erythroid progenitor cells compared with vehicle control” value in experiment [6] is reported as 2.2±0.5 fold.
